Measured values from the supplement of paper PMC12463676, “Small-molecule dissolution of stress granules by redox modulation benefits ALS models” (Nature Chemical Biology, 2025).
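Note: each temperature applied for 3 min, abundance score taken as mean log2 fold change at the two lowest temperatures, z-score obtained by mean subtraction and division by SD.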

Sequence of UniProt Q9UQB8 (Q9UQB8 whole entry): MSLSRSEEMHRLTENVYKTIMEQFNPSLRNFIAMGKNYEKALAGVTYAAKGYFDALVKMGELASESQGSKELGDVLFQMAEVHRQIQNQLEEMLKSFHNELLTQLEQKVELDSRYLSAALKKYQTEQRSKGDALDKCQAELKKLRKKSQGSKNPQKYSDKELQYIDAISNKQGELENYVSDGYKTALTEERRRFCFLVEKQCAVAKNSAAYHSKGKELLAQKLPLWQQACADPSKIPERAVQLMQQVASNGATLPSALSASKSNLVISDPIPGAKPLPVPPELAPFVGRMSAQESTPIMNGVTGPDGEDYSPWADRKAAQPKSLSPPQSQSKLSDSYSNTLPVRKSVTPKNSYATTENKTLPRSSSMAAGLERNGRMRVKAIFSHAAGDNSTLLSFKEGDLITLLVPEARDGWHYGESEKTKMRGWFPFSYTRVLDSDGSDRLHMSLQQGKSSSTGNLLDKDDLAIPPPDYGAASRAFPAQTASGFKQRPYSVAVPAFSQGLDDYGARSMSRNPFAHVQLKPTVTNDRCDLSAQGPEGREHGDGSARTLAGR
Sequence of UniProt P04424 (P04424 whole entry): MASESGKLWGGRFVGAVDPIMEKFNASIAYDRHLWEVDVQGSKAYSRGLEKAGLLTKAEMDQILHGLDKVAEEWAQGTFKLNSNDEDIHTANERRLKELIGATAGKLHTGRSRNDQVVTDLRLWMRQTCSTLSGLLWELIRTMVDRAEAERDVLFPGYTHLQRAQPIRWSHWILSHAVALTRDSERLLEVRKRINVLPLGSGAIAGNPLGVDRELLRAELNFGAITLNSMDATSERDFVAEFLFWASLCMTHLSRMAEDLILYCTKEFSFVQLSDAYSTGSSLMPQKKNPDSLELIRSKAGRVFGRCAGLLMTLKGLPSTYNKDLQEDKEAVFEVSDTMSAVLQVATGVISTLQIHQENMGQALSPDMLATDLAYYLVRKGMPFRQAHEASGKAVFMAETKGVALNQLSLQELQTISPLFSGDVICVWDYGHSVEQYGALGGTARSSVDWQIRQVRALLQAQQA
Sequence of UniProt Q9BRT3 (Q9BRT3 whole entry): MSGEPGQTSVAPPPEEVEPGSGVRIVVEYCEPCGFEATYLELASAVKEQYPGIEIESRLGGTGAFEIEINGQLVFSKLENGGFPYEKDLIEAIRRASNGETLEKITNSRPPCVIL
Sequence of UniProt P53992 (P53992 whole entry): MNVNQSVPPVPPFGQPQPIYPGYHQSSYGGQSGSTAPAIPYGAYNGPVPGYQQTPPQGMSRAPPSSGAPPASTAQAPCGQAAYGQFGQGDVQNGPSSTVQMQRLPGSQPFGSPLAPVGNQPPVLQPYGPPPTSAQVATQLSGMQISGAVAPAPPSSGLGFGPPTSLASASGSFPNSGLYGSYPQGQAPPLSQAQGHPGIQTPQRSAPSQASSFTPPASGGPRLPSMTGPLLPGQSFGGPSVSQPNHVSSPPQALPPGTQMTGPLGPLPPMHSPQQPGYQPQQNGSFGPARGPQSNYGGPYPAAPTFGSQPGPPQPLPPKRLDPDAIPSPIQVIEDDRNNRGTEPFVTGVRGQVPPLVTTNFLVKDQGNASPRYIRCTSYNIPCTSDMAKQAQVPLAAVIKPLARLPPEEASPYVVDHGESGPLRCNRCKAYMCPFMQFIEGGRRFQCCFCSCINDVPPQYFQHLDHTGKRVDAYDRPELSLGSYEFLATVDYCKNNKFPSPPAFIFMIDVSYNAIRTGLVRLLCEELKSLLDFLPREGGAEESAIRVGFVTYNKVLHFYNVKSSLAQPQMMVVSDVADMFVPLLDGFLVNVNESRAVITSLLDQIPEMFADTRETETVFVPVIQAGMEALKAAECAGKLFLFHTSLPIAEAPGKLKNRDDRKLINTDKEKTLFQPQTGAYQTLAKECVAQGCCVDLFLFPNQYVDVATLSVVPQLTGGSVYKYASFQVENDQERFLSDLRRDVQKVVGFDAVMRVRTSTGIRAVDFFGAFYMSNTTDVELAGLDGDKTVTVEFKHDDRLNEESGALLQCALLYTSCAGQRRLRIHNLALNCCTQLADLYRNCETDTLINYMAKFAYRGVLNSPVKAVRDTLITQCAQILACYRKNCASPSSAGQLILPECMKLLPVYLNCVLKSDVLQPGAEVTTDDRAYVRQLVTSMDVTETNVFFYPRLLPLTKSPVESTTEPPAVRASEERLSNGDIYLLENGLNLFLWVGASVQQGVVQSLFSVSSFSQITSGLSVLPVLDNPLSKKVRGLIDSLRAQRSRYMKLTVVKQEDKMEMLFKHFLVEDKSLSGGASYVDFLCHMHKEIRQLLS
Sequence of UniProt Q9BVG9 (Q9BVG9 whole entry): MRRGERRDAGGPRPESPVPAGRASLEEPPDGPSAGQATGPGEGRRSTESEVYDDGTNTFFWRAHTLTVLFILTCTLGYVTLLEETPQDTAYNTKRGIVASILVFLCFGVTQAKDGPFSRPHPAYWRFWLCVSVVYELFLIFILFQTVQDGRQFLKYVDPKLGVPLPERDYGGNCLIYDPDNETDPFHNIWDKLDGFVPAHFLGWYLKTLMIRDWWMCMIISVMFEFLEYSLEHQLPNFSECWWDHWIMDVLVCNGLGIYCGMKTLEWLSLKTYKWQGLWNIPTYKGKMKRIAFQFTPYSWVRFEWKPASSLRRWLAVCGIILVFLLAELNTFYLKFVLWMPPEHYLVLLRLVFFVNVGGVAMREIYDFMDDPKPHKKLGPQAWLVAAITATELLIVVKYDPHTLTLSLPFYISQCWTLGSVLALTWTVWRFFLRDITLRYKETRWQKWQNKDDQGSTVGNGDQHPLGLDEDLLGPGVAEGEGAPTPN
Sequence of UniProt P51572 (P51572 whole entry): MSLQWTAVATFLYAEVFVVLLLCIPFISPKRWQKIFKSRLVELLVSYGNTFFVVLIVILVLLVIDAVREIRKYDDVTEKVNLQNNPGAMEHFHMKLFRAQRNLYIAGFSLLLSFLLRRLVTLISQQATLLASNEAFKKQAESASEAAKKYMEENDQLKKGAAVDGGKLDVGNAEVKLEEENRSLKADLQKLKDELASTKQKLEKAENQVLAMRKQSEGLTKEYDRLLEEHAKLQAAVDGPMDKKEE
Sequence of UniProt Q9H0K6 (Q9H0K6 whole entry): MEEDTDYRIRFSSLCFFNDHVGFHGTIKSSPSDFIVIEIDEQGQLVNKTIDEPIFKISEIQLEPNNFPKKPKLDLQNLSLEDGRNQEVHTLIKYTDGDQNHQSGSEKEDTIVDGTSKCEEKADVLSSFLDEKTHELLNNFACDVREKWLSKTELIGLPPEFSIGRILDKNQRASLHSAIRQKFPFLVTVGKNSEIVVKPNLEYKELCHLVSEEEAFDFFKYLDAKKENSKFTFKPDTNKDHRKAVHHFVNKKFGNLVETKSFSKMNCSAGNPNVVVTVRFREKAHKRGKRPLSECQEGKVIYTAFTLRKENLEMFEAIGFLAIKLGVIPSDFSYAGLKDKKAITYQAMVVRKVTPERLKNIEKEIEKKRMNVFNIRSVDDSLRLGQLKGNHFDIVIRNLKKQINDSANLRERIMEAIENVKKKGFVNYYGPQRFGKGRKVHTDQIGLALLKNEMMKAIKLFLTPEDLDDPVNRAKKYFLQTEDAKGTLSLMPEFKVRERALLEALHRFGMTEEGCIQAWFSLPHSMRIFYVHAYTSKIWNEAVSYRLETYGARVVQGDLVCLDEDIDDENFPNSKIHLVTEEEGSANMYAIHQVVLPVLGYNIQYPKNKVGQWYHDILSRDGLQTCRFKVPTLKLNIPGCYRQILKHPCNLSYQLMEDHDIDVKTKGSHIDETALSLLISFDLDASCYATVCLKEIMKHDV
Sequence of UniProt Q9HBH1 (Q9HBH1 whole entry): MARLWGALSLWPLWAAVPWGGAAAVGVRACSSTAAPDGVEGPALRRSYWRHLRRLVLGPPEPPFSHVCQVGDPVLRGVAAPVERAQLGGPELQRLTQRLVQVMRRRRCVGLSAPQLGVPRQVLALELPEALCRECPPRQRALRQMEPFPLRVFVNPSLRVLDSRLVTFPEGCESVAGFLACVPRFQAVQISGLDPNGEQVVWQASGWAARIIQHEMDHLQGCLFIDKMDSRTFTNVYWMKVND
Sequence of UniProt P21953 (P21953 whole entry): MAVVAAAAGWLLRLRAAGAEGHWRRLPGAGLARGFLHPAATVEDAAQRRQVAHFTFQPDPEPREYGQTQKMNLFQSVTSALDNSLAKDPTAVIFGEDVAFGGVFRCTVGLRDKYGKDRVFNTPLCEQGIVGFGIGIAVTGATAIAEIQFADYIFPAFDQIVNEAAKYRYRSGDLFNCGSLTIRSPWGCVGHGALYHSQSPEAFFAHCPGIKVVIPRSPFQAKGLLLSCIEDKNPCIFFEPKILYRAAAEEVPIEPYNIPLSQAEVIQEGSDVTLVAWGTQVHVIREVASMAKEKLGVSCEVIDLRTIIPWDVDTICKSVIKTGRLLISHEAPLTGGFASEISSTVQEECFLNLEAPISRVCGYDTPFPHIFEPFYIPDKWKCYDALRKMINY
Sequence of UniProt P26583 (P26583 whole entry): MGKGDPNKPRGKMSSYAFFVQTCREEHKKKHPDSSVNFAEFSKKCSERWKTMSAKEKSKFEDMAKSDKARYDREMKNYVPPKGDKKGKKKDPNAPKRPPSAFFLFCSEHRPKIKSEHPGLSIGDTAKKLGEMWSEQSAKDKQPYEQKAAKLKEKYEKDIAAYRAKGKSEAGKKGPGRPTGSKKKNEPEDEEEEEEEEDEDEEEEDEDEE
Sequence of UniProt P42126 (P42126 whole entry): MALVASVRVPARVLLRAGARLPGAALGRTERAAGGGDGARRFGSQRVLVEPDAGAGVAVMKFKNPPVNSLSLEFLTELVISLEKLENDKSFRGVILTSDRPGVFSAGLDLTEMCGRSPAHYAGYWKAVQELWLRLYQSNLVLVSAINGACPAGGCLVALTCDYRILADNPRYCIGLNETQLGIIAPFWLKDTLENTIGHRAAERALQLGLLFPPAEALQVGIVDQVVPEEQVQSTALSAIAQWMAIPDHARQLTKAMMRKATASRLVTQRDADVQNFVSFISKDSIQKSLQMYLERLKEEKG
Sequence of UniProt Q9Y4Y9 (Q9Y4Y9 whole entry): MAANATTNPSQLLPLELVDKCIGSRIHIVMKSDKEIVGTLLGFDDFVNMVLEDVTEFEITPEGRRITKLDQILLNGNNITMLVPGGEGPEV

Each target was assayed with NC(=O)CCCCC1CCSS1 [lipoamide] (assay: thermal stability z-score vs DMSO; higher = more thermally stabilized by treatment). Details: HeLa; lipoamide concentration 100 µM; arsenate co-treatment: 1 mM arsenate 1 h.
Protocol: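 Cellular thermal proteome profiling in HeLa cells. Cells were treated with 100 µM lipoamide for 1 h, with or without 1 mM arsenate for a further 1 h, then heated to ten temperatures (37-66.3 °C), and soluble protein was quantified by TMT mass spectrometry relative to 0.1% DMSO controls. The thermal stability score (sum of log2 fold changes minus the abundance score) was transformed to a z-score; mean of n = 3 experiments.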
BCKDHB (UniProt P21953) showed a thermal stability z-score of 0.134.
MRPS28 (UniProt Q9Y2Q9) gave a thermal stability z-score of 0.366.
CMBL (UniProt Q96DG6) gave a thermal stability z-score of 0.865.
In the case of SEC24C (UniProt P53992), the thermal stability z-score is reported as 0.0998.
For PTDSS2 (UniProt Q9BVG9), the thermal stability z-score was 0.2.
Target MIEN1 (UniProt Q9BRT3) has a thermal stability z-score of 0.165.
Target CHD1 (UniProt O14646) has a thermal stability z-score of -0.0735.
Work on HLA yielded a thermal stability z-score of -0.65.
Target ASL (UniProt P04424) has a thermal stability z-score of 0.153.
With ECI1 (UniProt P42126) the thermal stability z-score was 0.859.
MRPL51 (UniProt Q4U2R6) was tested, and the thermal stability z-score was -0.114.
BAIAP2 (UniProt Q9UQB8) showed a thermal stability z-score of 0.142.
LSM5 (UniProt Q9Y4Y9) gave a thermal stability z-score of -0.69.
In the case of XPNPEP1 (UniProt Q9NQW7), the thermal stability z-score is reported as 1.5.
Work on PDZD8 (UniProt Q8NEN9) yielded a thermal stability z-score of -0.155.
Work on ZNHIT6 (UniProt Q9NWK9) yielded a thermal stability z-score of 1.08.
HSPA12A (UniProt O43301) showed a thermal stability z-score of -0.677.
PUS7L (UniProt Q9H0K6) gave a thermal stability z-score of 0.3.
In the case of RPL7A (UniProt P62424), the thermal stability z-score is reported as 0.455.
With PDF (UniProt Q9HBH1) the thermal stability z-score was -0.494.
Work on PPP2R2D (UniProt Q66LE6) yielded a thermal stability z-score of -0.473.
Target QARS has a thermal stability z-score of -0.515.
RABGAP1L was tested, and the thermal stability z-score was -0.279.
Target COA7 (UniProt Q96BR5) has a thermal stability z-score of 0.203.
Work on NAP1L4 (UniProt Q99733) yielded a thermal stability z-score of -0.0111.
Target HMGB2 (UniProt P26583) has a thermal stability z-score of 0.55.
RPTOR (UniProt Q8N122) gave a thermal stability z-score of 0.0585.
Work on BCAP31 (UniProt P51572) yielded a thermal stability z-score of 0.0788.

Same assay, conditions: HeLa; lipoamide concentration 100 µM; arsenate co-treatment: none
DDB2 (UniProt Q92466) showed a thermal stability z-score of -1.2.
METTL14 (UniProt Q9HCE5) was tested, and the thermal stability z-score was -0.836.
For EEF2 (UniProt P13639), the thermal stability z-score was 0.0227.
Work on CPM (UniProt P14384) yielded a thermal stability z-score of -0.163.
In the case of RBM4 (UniProt Q9BWF3), the thermal stability z-score is reported as 0.129.
SLC25A36 (UniProt Q96CQ1) showed a thermal stability z-score of 0.329.
Target CARM1 (UniProt Q86X55) has a thermal stability z-score of 0.944.
For RNF5 (UniProt Q99942), the thermal stability z-score was 0.142.
For EPS8L2 (UniProt Q9H6S3), the thermal stability z-score was 0.0219.
UBA1 (UniProt P22314) gave a thermal stability z-score of 0.213.
With MGEA5 (UniProt O60502) the thermal stability z-score was -0.157.
With NDUFS2 (UniProt O75306) the thermal stability z-score was -0.617.
Target ZNF638 (UniProt Q14966) has a thermal stability z-score of 0.27.
LZTR1 (UniProt Q8N653) gave a thermal stability z-score of 0.0373.
For HYOU1 (UniProt Q9Y4L1), the thermal stability z-score was -3.4.
VCPIP1 (UniProt Q96JH7) showed a thermal stability z-score of -0.156.
HSP90AA4P (UniProt Q58FG1) showed a thermal stability z-score of -1.53.
ABCB8 (UniProt Q9NUT2) showed a thermal stability z-score of -0.813.
COG2 (UniProt Q14746) showed a thermal stability z-score of -0.137.
Work on ATP6V1C1 (UniProt P21283) yielded a thermal stability z-score of 0.0202.
In the case of TMPO, the thermal stability z-score is reported as 0.0563.
NUDCD3 (UniProt Q8IVD9) was tested, and the thermal stability z-score was -0.183.
With SLC25A17 (UniProt O43808) the thermal stability z-score was -0.577.
Work on PEF1 (UniProt Q9UBV8) yielded a thermal stability z-score of 0.979.
In the case of PWP2 (UniProt Q15269), the thermal stability z-score is reported as 0.154.
Target CDR2 (UniProt Q01850) has a thermal stability z-score of 0.141.
Work on NOA1 (UniProt Q8NC60) yielded a thermal stability z-score of 0.0658.
In the case of SCAF4 (UniProt O95104), the thermal stability z-score is reported as 0.184.
BCKDHB (UniProt P21953) gave a thermal stability z-score of 0.149.
MRPS28 (UniProt Q9Y2Q9) gave a thermal stability z-score of 0.352.
In the case of CMBL (UniProt Q96DG6), the thermal stability z-score is reported as 0.482.
For SEC24C (UniProt P53992), the thermal stability z-score was 0.0631.
With PTDSS2 (UniProt Q9BVG9) the thermal stability z-score was -0.0317.
With MIEN1 (UniProt Q9BRT3) the thermal stability z-score was -0.595.
CHD1 (UniProt O14646) showed a thermal stability z-score of 0.209.
Work on HLA yielded a thermal stability z-score of -0.217.
ASL (UniProt P04424) gave a thermal stability z-score of -0.627.
For ECI1 (UniProt P42126), the thermal stability z-score was 0.555.
MRPL51 (UniProt Q4U2R6) gave a thermal stability z-score of 0.334.
In the case of BAIAP2 (UniProt Q9UQB8), the thermal stability z-score is reported as 0.0757.
LSM5 (UniProt Q9Y4Y9) was tested, and the thermal stability z-score was 0.0925.
Work on XPNPEP1 (UniProt Q9NQW7) yielded a thermal stability z-score of 0.794.
PDZD8 (UniProt Q8NEN9) showed a thermal stability z-score of 0.291.
For ZNHIT6 (UniProt Q9NWK9), the thermal stability z-score was 0.924.
For HSPA12A (UniProt O43301), the thermal stability z-score was -0.446.
Work on PUS7L (UniProt Q9H0K6) yielded a thermal stability z-score of 0.174.
In the case of RPL7A (UniProt P62424), the thermal stability z-score is reported as 0.197.
For PDF (UniProt Q9HBH1), the thermal stability z-score was -0.231.
With PPP2R2D (UniProt Q66LE6) the thermal stability z-score was -0.0425.
QARS was tested, and the thermal stability z-score was -0.706.
RABGAP1L showed a thermal stability z-score of -0.536.
Target COA7 (UniProt Q96BR5) has a thermal stability z-score of 0.0661.
For NAP1L4 (UniProt Q99733), the thermal stability z-score was 0.113.
HMGB2 (UniProt P26583) was tested, and the thermal stability z-score was 0.687.
For RPTOR (UniProt Q8N122), the thermal stability z-score was 0.132.
With BCAP31 (UniProt P51572) the thermal stability z-score was 0.099.
